According to the supplement of paper PMC10307832:

How the values were obtained:
Experiment in all cases: relative viability (nuclei count vs DMSO), 5 days (fraction); higher = more cells survive
GW-2580 + Navitoclax = compound: COC1=CC=C(C=C1)COC2=C(C=C(C=C2)CC3=CN=C(N=C3N)N)OC [GW-2580] + CC1(C)CCC(c2ccc(Cl)cc2)=C(CN2CCN(c3ccc(C(=O)NS(=O)(=O)c4ccc(N[C@H](CCN5CCOCC5)CSc5ccccc5)c(S(=O)(=O)C(F)(F)F)c4)cc3)CC2)C1 [Navitoclax] (partner 0.5 µM)
How it was run: (§1)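 A single step with final 0.05% Triton X-100, 1% formaldehyde and 1 ug/ml Hoechst fixed the cells and stained nuclei 5 days after treatment. Lung cancer cell lines in 1536-well plates had been treated by pin tool the day after seeding with one drug alone or a fixed anchor-drug dose plus five library-drug doses (not always all listed) in √10 steps, and nuclei were counted on 4× images. Relative viability is the ratio of nuclei in treated wells to nuclei in vehicle wells, taken as the median of duplicate plates.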

Fedratinib + Phenformin = compound: Cc1cnc(Nc2ccc(OCCN3CCCC3)cc2)nc1Nc1cccc(S(=O)(=O)NC(C)(C)C)c1 [Fedratinib] + N=C(N)NC(=N)NCCc1ccccc1 [Phenformin] (partner 250 µM)
How it was run: as §1

GW-2580 + Linsitinib = compound: COC1=CC=C(C=C1)COC2=C(C=C(C=C2)CC3=CN=C(N=C3N)N)OC [GW-2580] + C[C@]1(O)C[C@@H](c2nc(-c3ccc4ccc(-c5ccccc5)nc4c3)c3c(N)nccn32)C1 [Linsitinib] (partner 1 µM)
How it was run: as §1

GW-2580 + Trametinib = compound: COC1=CC=C(C=C1)COC2=C(C=C(C=C2)CC3=CN=C(N=C3N)N)OC [GW-2580] + CC(=O)Nc1cccc(-n2c(=O)n(C3CC3)c(=O)c3c(Nc4ccc(I)cc4F)n(C)c(=O)c(C)c32)c1 [Trametinib] (partner 0.02 µM)
How it was run: as §1

GW-2580 + Palbociclib = compound: COC1=CC=C(C=C1)COC2=C(C=C(C=C2)CC3=CN=C(N=C3N)N)OC [GW-2580] + CC(=O)c1c(C)c2cnc(Nc3ccc(N4CCNCC4)cn3)nc2n(C2CCCC2)c1=O [Palbociclib] (partner 0.5 µM)
How it was run: as §1

Row | Cell Line | relative viability (GW-2580 + Navitoclax; first compound 0.08 µM) | relative viability (GW-2580 + Navitoclax; first compound 0.8 µM) | relative viability (GW-2580 + Navitoclax; first compound 2.53 µM) | relative viability (GW-2580 + Navitoclax; first compound 8 µM) | relative viability (Fedratinib + Phenformin; first compound 0.1 µM) | relative viability (Fedratinib + Phenformin; first compound 0.3162 µM) | relative viability (Fedratinib + Phenformin; first compound 1 µM) | relative viability (GW-2580 + Linsitinib; first compound 0.08 µM) | relative viability (GW-2580 + Linsitinib; first compound 0.8 µM) | relative viability (GW-2580 + Linsitinib; first compound 2.53 µM) | relative viability (GW-2580 + Linsitinib; first compound 8 µM) | relative viability (GW-2580 + Trametinib; first compound 0.08 µM) | relative viability (GW-2580 + Trametinib; first compound 0.8 µM) | relative viability (GW-2580 + Trametinib; first compound 2.53 µM) | relative viability (GW-2580 + Trametinib; first compound 8 µM) | relative viability (GW-2580 + Palbociclib; first compound 0.08 µM) | relative viability (GW-2580 + Palbociclib; first compound 0.8 µM) | relative viability (GW-2580 + Palbociclib; first compound 2.53 µM) | relative viability (GW-2580 + Palbociclib; first compound 8 µM)
1 | 201T | 1.24 | 1.25 | 1.23 | 1.2 | 0.429 | 0.478 | 0.414 | 1.06 | 1.14 | 1.14 | 1.06 | 0.76 | 0.753 | 0.754 | 0.748 | 0.388 | 0.4 | 0.375 | 0.351
2 | A549 | 1.38 | 1.25 | 1.12 | 0.918 |  | 0.169 | 0.165 | 0.678 | 0.701 | 0.501 | 0.602 |  |  |  |  |  |  |  | 
3 | A-427 | 1.02 | 1.1 | 0.838 | 0.856 | 0.26 | 0.298 | 0.147 | 1.18 | 1.16 | 1.01 | 1.08 | 0.785 | 0.675 | 0.648 | 0.704 | 0.521 | 0.534 | 0.52 | 0.529
4 | ABC-1 |  |  |  |  | 0.265 | 0.23 | 0.209 | 0.791 | 0.816 | 0.883 | 0.718 |  |  |  |  | 0.74 | 0.768 | 0.503 | 0.696
5 | BEN | 0.0663 | 0.486 | 0.0634 | 0.0526 | 0.251 | 0.231 | 0.292 | 1.08 | 1.04 | 0.816 | 0.93 | 1.05 | 1.1 | 0.898 | 0.979 | 0.491 | 0.507 | 0.471 | 0.491
6 | CAL-12T | 1.27 |  | 1.22 | 1.34 | 0.597 | 0.611 | 0.526 | 0.985 | 0.815 | 0.917 | 0.762 | 0.33 | 0.284 | 0.356 | 0.436 | 0.639 | 0.416 | 0.517 | 0.413
7 | COR-L23 | 1.32 | 1.17 | 1.14 | 1.11 | 0.438 | 0.412 | 0.442 | 0.987 | 1.2 | 0.946 | 1.02 | 0.684 | 0.632 | 0.549 | 0.67 | 0.264 | 0.328 | 0.302 | 0.288
8 | COR-L 105 | 0.813 | 0.814 | 0.72 | 0.751 | 0.398 | 0.429 | 0.433 | 1.03 | 0.807 | 0.929 | 1.01 | 0.404 | 0.409 | 0.418 | 0.442 | 0.434 | 0.398 | 0.413 | 0.39
9 | Calu-6 | 0.932 | 0.868 | 0.782 | 0.877 |  |  |  | 1.11 | 0.938 | 0.913 | 1.02 |  |  |  |  |  |  |  | 
10 | ChaGo-K-1 | 1.04 | 1.34 | 0.926 | 1.01 | 0.436 | 0.432 | 0.445 |  |  |  |  | 0.921 | 0.921 | 0.881 | 0.867 | 0.927 | 0.943 | 0.88 | 0.895
